Measured values taken from patent publication US10112937B2, “P2X7 modulators and methods of use” (Janssen Pharmaceutica NV, priority 2013, dated 2018).

Target: human P2X7 (Homo sapiens (Human), UniProt Q99572)
Assay: P2X7 antagonism in human PBMCs (IL-1β release after LPS + Bz-ATP, ELISA)
Type: cell-based
Conditions: for PBMC 1 μM (% control): test compound 1 μM
[1] = human PBMCs, test compound 10 μM

human P2X7, sequence (Q99572 whole entry): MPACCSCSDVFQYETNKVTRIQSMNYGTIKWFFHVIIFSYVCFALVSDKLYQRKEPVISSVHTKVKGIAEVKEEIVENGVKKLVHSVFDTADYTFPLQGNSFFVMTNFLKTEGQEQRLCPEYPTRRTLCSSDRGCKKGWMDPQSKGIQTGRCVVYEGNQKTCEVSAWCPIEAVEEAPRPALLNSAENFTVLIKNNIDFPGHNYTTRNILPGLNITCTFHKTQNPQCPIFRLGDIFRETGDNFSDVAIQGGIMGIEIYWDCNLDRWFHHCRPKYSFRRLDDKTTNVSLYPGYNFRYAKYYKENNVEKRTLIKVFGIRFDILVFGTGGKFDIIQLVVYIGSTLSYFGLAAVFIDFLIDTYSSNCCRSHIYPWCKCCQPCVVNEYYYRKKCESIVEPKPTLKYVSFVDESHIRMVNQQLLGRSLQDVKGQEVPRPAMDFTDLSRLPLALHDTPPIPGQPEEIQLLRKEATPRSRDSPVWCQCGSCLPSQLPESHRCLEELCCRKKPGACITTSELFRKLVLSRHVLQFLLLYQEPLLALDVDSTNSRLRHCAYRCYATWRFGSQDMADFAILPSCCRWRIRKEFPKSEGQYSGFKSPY

Row | SMILES | PBMC 10 μM (% control) [1] [% control] | further results
1 | O=C(c1cccc(C(F)(F)F)c1Cl)N1C=Cc2c(nnn2-c2cnccn2)C1c1ccccc1 (stereo not shown) [Example 76, 5-{[2-Chloro-3-(trifluoromethyl)phenyl]carbonyl}-4-phenyl-1-pyrazin-2-yl-4,5-dihydro-1H-[1,2,3]triazolo[4,5-c]pyridine] |  | PBMC 1 μM (% control) (human PBMCs): 1.6 % control
2 | Cc1nc(-n2nnc3c2CCN(C(=O)c2cccc(C(F)(F)F)c2Cl)C3C)ncc1F (stereo not shown) [Example 230, (2-chloro-3-(trifluoromethyl)phenyl)(1-(5-fluoro-4-methylpyrimidin-2-yl)-4-methyl-6,7-dihydro-1H-[1,2,3]triazolo[4,5-c]pyridin-5(4H)-yl)methanone] | 2.9 | 
3 | CC1Cc2c(nnn2-c2ncc(F)cn2)CN1C(=O)c1ccc(F)c(Cl)c1Cl (stereo not shown) [Example 213, 5-[(2,3-Dichloro-4-fluorophenyl)carbonyl]-1-(5-fluoropyrimidin-2-yl)-6-methyl-4,5,6,7-tetrahydro-1H-[1,2,3]triazolo[4,5-c]pyridine] | 0.3 | 
4 | O=C(c1cccc(C(F)(F)F)c1F)N1CCc2c(nnn2-c2ccccn2)C1 [Example 123, (2-Fluoro-3-(trifluoromethyl)phenyl)(1-(pyridin-2-yl)-6,7-dihydro-1H-[1,2,3]triazolo[4,5-c]pyridin-5(4H)-yl)methanone] |  | PBMC 1 μM (% control) (human PBMCs): 22.0 % control
5 | C[C@H]1Cc2c(nnn2-c2cc(F)ccn2)CN1C(=O)c1cccc(Cl)c1Cl (single isomer, unassigned) [Example 196, (6S*)-5-[(2,3-Dichlorophenyl)carbonyl]-1-(4-fluoropyridin-2-yl)-6-methyl-4,5,6,7-tetrahydro-1H-[1,2,3]triazolo[4,5-c]pyridine] | −3.1 | 
6 | O=C(c1cccc(C(F)(F)F)c1Cl)N1CCc2c(-c3ccccc3)n[nH]c2C1 [Example 99, (2-Chloro-3-(trifluoromethyl)phenyl)(3-phenyl-4,5-dihydro-1H-pyrazolo[3,4-c]pyridin-6(7H)-yl)methanone] |  | PBMC 1 μM (% control) (human PBMCs): 7.0 % control
7 | Cn1nc(-c2ccccc2)c2c1CN(C(=O)c1cccc(Cl)c1Cl)CC2.Cn1nc2c(c1-c1ccccc1)CCN(C(=O)c1cccc(Cl)c1Cl)C2 [Example 101, 6-[(2,3-Dichlorophenyl)carbonyl]-1-methyl-3-phenyl-4,5,6,7-tetrahydro-1H-pyrazolo[3,4-c]pyridine-6-[(2,3-dichlorophenyl)carbonyl]-2-methyl-3-phenyl-4,5,6,7-tetrahydro-2H-pyrazolo[3,4-c]pyridine (1:1)] |  | PBMC 1 μM (% control) (human PBMCs): 7.6 % control; PBMC 1 μM (% control) (LPS 30 ng/ml + 0.5 mM Bz-ATP): 7.6 % control
8 | Cc1c(C(=O)N2Cc3nnn(-c4ncc(F)cn4)c3C[C@H]2C)cccc1C(F)(F)F (single isomer, unassigned) [Example 207, (6R*)-1-(5-Fluoropyrimidin-2-yl)-6-methyl-5-{[2-methyl-3-(trifluoromethyl)phenyl]carbonyl}-4,5,6,7-tetrahydro-1H-[1,2,3]triazolo[4,5-c]pyridine] | 45.0 | 
9 | Cc1c(C(=O)N2CCc3c(nnn3-c3cnccn3)C2)cccc1C(F)(F)F [Example 276, (2-methyl-3-(trifluoromethyl)phenyl)(1-(pyrazin-2-yl)-6,7-dihydro-1H-[1,2,3]triazolo[4,5-c]pyridin-5(4H)-yl)methanone] | −0.9 | 
10 | Cn1nc2c(c1-c1ccc(F)cc1)CCN(C(=O)c1cccc(Cl)c1Cl)C2 [Example 326, (2,3-dichlorophenyl)(3-(4-fluorophenyl)-2-methyl-4,5-dihydro-2H-pyrazolo[3,4-c]pyridin-6(7H)-yl)methanone] |  | PBMC 1 μM (% control) (human PBMCs): 92.0 % control
11 | C[C@H]1Cc2c(nnn2-c2ncc(O)cn2)CN1C(=O)c1ccnc(C(F)(F)F)c1F [Example 429, (S)-(3-fluoro-2-(trifluoromethyl)pyridin-4-yl)(1-(5-hydroxypyrimidin-2-yl)-6-methyl-6,7-dihydro-1H-[1,2,3]triazolo[4,5-c]pyridin-5(4H)-yl)methanone] |  | PBMC 10 μM (% control) (10 μM test compound, human PBMCs, LPS + Bz-ATP): 2.3 % control

Continued, in another order:

Row | PBMC 10 μM (% control) [1] [% control] | SMILES | further results
12 | 4.8 | CCOc1cccnc1-n1nnc2c1CCN(C(=O)c1cccc(C(F)(F)F)c1Cl)[C@H]2C (single isomer, unassigned) [Example 317, (S*)-(2-chloro-3-(trifluoromethyl)phenyl)(1-(3-ethoxypyridin-2-yl)-4-methyl-6,7-dihydro-1H-[1,2,3]triazolo[4,5-c]pyridin-5(4H)-yl)methanone] | 
13 | 107.5 | Cc1cc(-n2nnc3c2CCN(C(=O)c2cc(C(F)(F)F)ccc2Cl)[C@@H]3C)ncc1F (single isomer, unassigned) [Example 353, (R*)-(2-chloro-5-(trifluoromethyl)phenyl)(1-(5-fluoro-4-methylpyridin-2-yl)-4-methyl-6,7-dihydro-1H-[1,2,3]triazolo[4,5-c]pyridin-5(4H)-yl)methanone] | 
14 | 6.9 | C[C@H]1c2nnn(-c3cncnc3)c2CCN1C(=O)c1cccc(C(F)(F)F)c1Cl [Example 333, (S)-(2-chloro-3-(trifluoromethyl)phenyl)(4-methyl-1-(pyrimidin-5-yl)-6,7-dihydro-1H-[1,2,3]triazolo[4,5-c]pyridin-5(4H)-yl)methanone] | 
15 | 83.4 | Cc1cc(-n2nnc3c2CCN(C(=O)c2cc(C(F)(F)F)ccc2Cl)[C@H]3C)ncc1F (single isomer, unassigned) [Example 354, (S*)-(2-chloro-5-(trifluoromethyl)phenyl)(1-(5-fluoro-4-methylpyridin-2-yl)-4-methyl-6,7-dihydro-1H-[1,2,3]triazolo[4,5-c]pyridin-5(4H)-yl)methanone] | 
16 | −4.1 | CC1CN(C(=O)c2cccc(C(F)(F)F)c2Cl)C(C)c2nnn(-c3ccc(F)cc3)c21 (stereo not shown) [Example 238, (2-Chloro-3-(trifluoromethyl)phenyl)(1-(4-fluorophenyl)-4,7-dimethyl-6,7-dihydro-1H-[1,2,3]triazolo[4,5-c]pyridin-5(4H)-yl)methanone] | 
17 | 58.0 | Cc1cccc(-n2nnc3c2CCN(C(=O)c2cccc(C(F)(F)F)c2Cl)[C@@H]3C)n1 (single isomer, unassigned) [Example 226, (R*)-(2-chloro-3-(trifluoromethyl)phenyl)(4-methyl-1-(6-methylpyridin-2-yl)-6,7-dihydro-1H-[1,2,3]triazolo[4,5-c]pyridin-5(4H)-yl)methanone] | 
18 | 6.2 | Cc1ccnc(-n2nnc3c2CCN(C(=O)c2cccc(Cl)c2Cl)[C@@H]3C)c1 (single isomer, unassigned) [Example 394, (R*)-(2,3-dichlorophenyl)(4-methyl-1-(4-methylpyridin-2-yl)-6,7-dihydro-1H-[1,2,3]triazolo[4,5-c]pyridin-5(4H)-yl)methanone] | 
19 | −1.1 | C[C@H]1c2ncn(-c3ccc(F)cc3)c2CCN1C(=O)c1cccc(C(F)(F)F)c1Cl (single isomer, unassigned) [Example 47] | 
20 | −7.1 | Cc1cccnc1-n1nnc2c1CCN(C(=O)c1cccc(C(F)(F)F)c1Cl)[C@@H]2C (single isomer, unassigned) [Example 291, (R*)-(2-chloro-3-(trifluoromethyl)phenyl)(4-methyl-1-(3-methylpyridin-2-yl)-6,7-dihydro-1H-[1,2,3]triazolo[4,5-c]pyridin-5(4H)-yl)methanone] | 
21 | −5.7 | C[C@H]1c2nnn(-c3ccn(C)n3)c2CCN1C(=O)c1cccc(C(F)(F)F)c1Cl (single isomer, unassigned) [Example 170, (S*)-(2-Chloro-3-(trifluoromethyl)phenyl)(4-methyl-1-(1-methyl-1H-pyrazol-3-yl)-6,7-dihydro-1H-[1,2,3]triazolo[4,5-c]pyridin-5(4H)-yl)methanone] | 
22 | −5.5 | Cc1ccc(-n2nnc3c2CCN(C(=O)c2cccc(C(F)(F)F)c2Cl)[C@@H]3C)nc1 (single isomer, unassigned) [Example 255, (R*)-(2-chloro-3-(trifluoromethyl)phenyl)(4-methyl-1-(5-methylpyridin-2-yl)-6,7-dihydro-1H-[1,2,3]triazolo[4,5-c]pyridin-5(4H)-yl)methanone] | 
23 | −6.3 | CC1c2nnn(-c3ncccn3)c2CCN1C(=O)c1ccc(Cl)cc1Cl (stereo not shown) [Example 283, (2,4-dichlorophenyl)(4-methyl-1-(pyrimidin-2-yl)-6,7-dihydro-1H-[1,2,3]triazolo[4,5-c]pyridin-5(4H)-yl)methanone] | 
24 | −0.1 | Cc1cccc(-n2nnc3c2CCN(C(=O)c2cccc(Cl)c2Cl)C3C)n1 (stereo not shown) [Example 233, (2,3-dichlorophenyl)(4-methyl-1-(6-methylpyridin-2-yl)-6,7-dihydro-1H-[1,2,3]triazolo[4,5-c]pyridin-5(4H)-yl)methanone] | 
25 | 5.8 | O=C(c1cccc(C(F)(F)F)c1Cl)N1CCc2c(nnn2-c2ncccn2)C1 [Example 65, 5-{[2-Chloro-3-(trifluoromethyl)phenyl]carbonyl}-1-pyrimidin-2-yl-4,5,6,7-tetrahydro-1H-[1,2,3]triazolo[4,5-c]pyridine] | 
26 | 0.9 | Cc1nc(-n2nnc3c2CCN(C(=O)c2cccc(C(F)(F)F)c2Cl)[C@@H]3C)ncc1F (single isomer, unassigned) [Example 305, (R*)-(2-chloro-3-(trifluoromethyl)phenyl)(1-(5-fluoro-4-methylpyrimidin-2-yl)-4-methyl-6,7-dihydro-1H-[1,2,3]triazolo[4,5-c]pyridin-5(4H)-yl)methanone] | 
27 | −0.7 | CCc1nc2c(n1-c1ccccc1)CCN(C(=O)c1cccc(C(F)(F)F)c1Cl)C2C (stereo not shown) [Example 184, (2-Chloro-3-(trifluoromethyl)phenyl)(2-ethyl-4-methyl-1-phenyl-6,7-dihydro-1H-imidazo[4,5-c]pyridin-5(4H)-yl)methanone] | 
